Values quoted from earlier work as cited in article PMC2864424 (Current Chemical Genomics, 2010).

What was measured:
OATP1B3 = conditions: concentrations up to 10 μM; cited from earlier work
OATP1B1 = conditions: cited from earlier work

Q: Which results are given for `CC1(C)C(/C=C/C=C/C=C/C=C2\N(CCCCS(=O)(=O)O)c3ccc4ccccc4c3C2(C)C)=[N+](CCCCS(=O)(=O)[O-])c2ccc3ccccc3c21` [indocyanine green]?
A: effect on OATP1B3-mediated estradiol-17β-glucuronide transport (OATP1B3): not affecting; effect on OATP1B1-mediated estradiol-17β-glucuronide transport (OATP1B1): specific inhibitor
